Assay results from patent publication US9006224B2, “Neuroendocrine tumor treatment” (Novartis AG, priority 2005, dated 2015).

What was measured:
Type in all cases: cell-based
A549 line = assay: Antiproliferative activity, methylene blue staining, A549 line
Experimental: (§1) Subsequently, a two-fold dilution series of each compound (an mTOR inhibitor other than Compound A or a known chemotherapeutic agent) is made in separate tubes (starting at 8× the IC50 of each compound) either alone or in paired combinations, and the dilutions are added to the wells.
(§2) The cells are then re-incubated for 3 days. Methylene blue staining is performed on day 4 and the amount of bound dye (proportional to the number of surviving cells that bind the dye) determined. IC50s are subsequently determined using the Calcusyn program, which provides a measure of the interaction, namely the so-called non-exclusive combination index (CI), where: CI˜1=the interaction is nearly additive; 0.85-0.9=slight synergism; <0.85=synergy.

KB-31 = assay: Antiproliferative activity, methylene blue staining, KB-31 line
Experimental: as §1, §2

HCT116 = assay: Antiproliferative activity, methylene blue staining, HCT116 line
Experimental: as §1, §2

[1] = tested on: A cell line, e.g. A549, KB-31 and HCT116 lines; assay: Antiproliferative activity in combination with other agents (Calcusyn combination index); settings: e.g. with somastatin or a somastatin analogue, 3 days incubation, methylene blue staining
Experimental: as §1, §2

[2] = tested on: cells which are otherwise resistant to endocrine agent treatment; assay: In vitro studies: restoring activity of endocrine agents in resistant cells
From the text: Several studies have implicated aberrant activity of the Akt kinase as a significant mechanism by which breast cancer tumors are unresponsive to endocrine therapy.

For `CO[C@H]1C[C@@H]2CC[C@@H](C)[C@@](O)(O2)C(=O)C(=O)N2CCCC[C@H]2C(=O)O[C@H]([C@H](C)C[C@@H]2CC[C@@H](OCCO)[C@H](OC)C2)CC(=O)[C@H](C)/C=C(\C)[C@@H](O)[C@@H](OC)C(=O)[C@H](C)C[C@H](C)/C=C/C=C/C=C/1C` [Compound A, 40-O-(2-hydroxyethyl)-rapamycin], the IC50 (A549 line) was “low nM range”, the IC50 (KB-31) was “micromolar range” and the IC50 (HCT116) was “micromolar range”. The “antiproliferative activity in combination with another chemotherapeutic agent” value [1] was “interesting antiproliferative activity” and the “restoration of activity of endocrine agents (estrogen inhibitors and/or aromatase inhibitors)” value [2] was “able to restore activity of endocrine agents”.
